From patent US10307357B2, “Prebiotic oral care compositions containing an alkyl glycoside” (COLGATE-PALMOLIVE COMPANY, priority 2013, dated 2019)

Legend:
Assay type in all cases: cell-based
Actinomyces naeslundii = assay: Twenty-four hour optical density growth in BHI; conditions: over 24 hours, control = 1
Experimental: (§1) The extent of growth of the tested bacteria in response to selected glycosides (β-methyl-D-galactoside and α-methyl-D-galactoside) was investigated by setting up growth curves in a nutritionally rich medium (brain heart infusion broth (BHI), Oxoid), over 24 hours. Late exponential growth phase liquid cultures were prepared by transferring the respective bacterium from blood agar plates to BHI and overnight incubation at 37° C. in an anaerobic atmosphere for A. viscosus, V. parvula, F. nucleatum, P. gingivalis, P. intermedia, T. forsythia, A. naeslundii, and C. sputigena, and in a 5% CO2 environment for S. salivarius, S. sanguinis, S. mitis, A. actinomycetemcomitans, S. mutans, S. sobrinus and S. gordonii. Overnight cultures were transferred to BHI and adjusted to a concentration of 1×10^7 CFU/ml (colony forming units per ml) by measuring the optical density at 600 nm (OD600) (BioRad SmartSpec 3000). For each strain, 200 μl of the bacterial suspension was added to a 96-well plate containing 20 μl of the respective glycosides. Final concentrations of the glycosides were set to 5, 10, 20 and 25 μmol/ml. […] Plates were incubated as previously described. For each combination of bacterium/glycoside, and for each of their respective controls (i.e. the particular bacterium in the nutritionally rich medium with no glycoside), the optical density was measured at 630 nm (OD630) at 0 h and 24 h (Thermo Scientific Multiskan Ascent). Additionally, the OD630 for combinations of bacterium/glycosides grown in a 5% CO2 environment were also measured every hour between 0 h and 9 h. […] The experiment was carried out on three different days (thus providing 3 biological replicas) and on each day the experiment was carried out in quadruple (thus providing 4 technical replicas) for each combination of bacterium with glycoside and for each control. For each day and for each combination, the average (mean) of the values obtained (as detailed above) for the four technical replicas was calculated to provide a single value for each combination on each day. The values shown in Tables 5 to 6, below, are the average (mean) of the three single values obtained for each combination of bacterium with glycoside (α-Methyl-D-Galactoside=α-MDG; β-Methyl-D-Galactoside=β-MDG).

[1] = tested on: Aggregatibacter actinomycetemcomitans; assay: Twenty-four hour optical density growth in BHI; conditions: over 24 hours, control = 1
Experimental: as §1

Prevotella intermedia = assay: Twenty-four hour optical density growth in BHI; conditions: over 24 hours, control = 1
Experimental: as §1

Streptococcus gordonii [2] = assay: Twenty-four hour optical density growth in BHI; conditions: over 24 hours, control = 1
Experimental: as §1

Streptococcus mutans [3] = assay: Twenty-four hour optical density growth in BHI; conditions: over 24 hours, control = 1
Experimental: as §1

Streptococcus salivarius = assay: Twenty-four hour optical density growth in BHI; conditions: over 24 hours, control = 1
Experimental: as §1

Tannerella forsythia [4] = assay: Twenty-four hour optical density growth in BHI; conditions: over 24 hours, control = 1
Experimental: as §1

Veillonella parvula = assay: Twenty-four hour optical density growth in BHI; conditions: over 24 hours, control = 1
Experimental: as §1

Streptococcus gordonii [5] = assay: Twenty-four hour biofilm growth (crystal violet); conditions: 24 hours, control = 1
Experimental: (§2) The increase in biofilm formation of the tested bacteria in response to selected glycosides (β-methyl-D-galactoside and α-methyl-D-galactoside) was investigated by setting up biofilm growth assays in a nutritionally rich medium (brain heart infusion broth (BHI), Oxoid), over 24 hours. Late exponential growth phase liquid cultures were prepared by transferring the respective bacterium from blood agar plates to BHI and overnight incubation at 37° C. in an anaerobic atmosphere for A. viscosus, V. parvula, P. gingivalis, P. intermedia, T. forsythia, A. naeslundii, and C. sputigena, and in a 5% CO2 environment for S. salivarius, S. sanguinis, S. mitis, A. actinomycetemcomitans, S. mutans, and S. gordonii. Overnight cultures were transferred to BHI and adjusted to a concentration of 1×10^7 CFU/ml by measuring the optical density at 600 nm (OD600) (BioRad SmartSpec 3000). For each strain, 200 μl of the bacterial suspension was added to a 96-well plate containing 20 μl of the respective glycosides. Final concentrations of the glycosides were set to 5, 10, 20 and 25 μmol/ml. […] Additionally, for each bacterium tested, a background control, to correct for background staining, was added. This background control contained the bacterium tested and 0.03 weight % chlorhexidine, as an antiseptic. Plates were incubated as previously described. After 24 hrs the supernatant was removed from the wells of the plates. The wells were washed twice with 1×100 μL PBS (phosphate buffered saline), fixed for 20 minutes with 96% vol. ethanol (96% vol. solution in water) and the biofilm retained at the bottom of the wells was stained with 1 weight % crystal violet (1 weight % solution in water). The bound dye was dissolved with 5% vol. acetic acid (5% vol. solution in water). Quantification of the stained biofilm was performed by measuring the absorbance at 630 nm using a Multiskan Ascent microplate reader (Thermo Scientific). […] The experiment was carried out on three different days (thus providing 3 biological replicas) and each day the experiment was carried out in quadruple (thus providing 4 technical replicas) for each combination of bacterium with glycoside and for each control. For each day and for each combination, the average (mean) of the values obtained (as detailed above) for the four technical replicas was calculated to provide a single value for each combination on each day. The values shown in Tables 7 to 8, below, are the average (mean) of the three single values obtained for each combination of bacterium with glycoside.

Streptococcus mitis = assay: Twenty-four hour biofilm growth (crystal violet); conditions: 24 hours, control = 1
Experimental: as §2

Streptococcus mutans [6] = assay: Twenty-four hour biofilm growth (crystal violet); conditions: 24 hours, control = 1
Experimental: as §2

Tannerella forsythia [7] = assay: Twenty-four hour biofilm growth (crystal violet); conditions: 24 hours, control = 1
Experimental: as §2

## CO[C@H]1O[C@H](CO)[C@H](O)[C@H](O)[C@H]1O [α-methyl-D-galactoside]
Actinomyces naeslundii; 5 μmol/ml
  maximal OD630 divided by control (extent of growth): 0.9762
Actinomyces naeslundii; 10 μmol/ml
  maximal OD630 divided by control (extent of growth): 0.9994
Actinomyces naeslundii; 20 μmol/ml
  maximal OD630 divided by control (extent of growth): 0.9595
Actinomyces naeslundii; 25 μmol/ml
  maximal OD630 divided by control (extent of growth): 0.9481
[1]; 5 μmol/ml
  maximal OD630 divided by control (extent of growth): 0.7382
[1]; 10 μmol/ml
  maximal OD630 divided by control (extent of growth): 0.7398
[1]; 20 μmol/ml
  maximal OD630 divided by control (extent of growth): 0.7462
[1]; 25 μmol/ml
  maximal OD630 divided by control (extent of growth): 0.7395
Prevotella intermedia; 5 μmol/ml
  maximal OD630 divided by control (extent of growth): 0.9203
Prevotella intermedia; 10 μmol/ml
  maximal OD630 divided by control (extent of growth): 0.9043
Prevotella intermedia; 20 μmol/ml
  maximal OD630 divided by control (extent of growth): 0.8637
Prevotella intermedia; 25 μmol/ml
  maximal OD630 divided by control (extent of growth): 0.8498
Streptococcus gordonii [2]; 5 μmol/ml
  maximal OD630 divided by control (extent of growth): 0.9997
Streptococcus gordonii [2]; 10 μmol/ml
  maximal OD630 divided by control (extent of growth): 0.9966
Streptococcus gordonii [2]; 20 μmol/ml
  maximal OD630 divided by control (extent of growth): 1.0089
Streptococcus gordonii [2]; 25 μmol/ml
  maximal OD630 divided by control (extent of growth): 1.0255
Streptococcus mutans [3]; 5 μmol/ml
  maximal OD630 divided by control (extent of growth): 0.9703
Streptococcus mutans [3]; 10 μmol/ml
  maximal OD630 divided by control (extent of growth): 0.9003
Streptococcus mutans [3]; 20 μmol/ml
  maximal OD630 divided by control (extent of growth): 0.4212
Streptococcus mutans [3]; 25 μmol/ml
  maximal OD630 divided by control (extent of growth): 0.2492
Streptococcus salivarius; 5 μmol/ml
  maximal OD630 divided by control (extent of growth): 0.8965
Streptococcus salivarius; 10 μmol/ml
  maximal OD630 divided by control (extent of growth): 0.8910
Streptococcus salivarius; 20 μmol/ml
  maximal OD630 divided by control (extent of growth): 0.8640
Streptococcus salivarius; 25 μmol/ml
  maximal OD630 divided by control (extent of growth): 0.8725
Tannerella forsythia [4]; 5 μmol/ml
  maximal OD630 divided by control (extent of growth): 0.9724
Tannerella forsythia [4]; 10 μmol/ml
  maximal OD630 divided by control (extent of growth): 0.9898
Tannerella forsythia [4]; 20 μmol/ml
  maximal OD630 divided by control (extent of growth): 0.9846
Tannerella forsythia [4]; 25 μmol/ml
  maximal OD630 divided by control (extent of growth): 1.0112
Veillonella parvula; 5 μmol/ml
  maximal OD630 divided by control (extent of growth): 0.9160
Veillonella parvula; 10 μmol/ml
  maximal OD630 divided by control (extent of growth): 0.9528
Veillonella parvula; 20 μmol/ml
  maximal OD630 divided by control (extent of growth): 0.9141
Veillonella parvula; 25 μmol/ml
  maximal OD630 divided by control (extent of growth): 0.9326
Streptococcus gordonii [5]; 5 μmol/ml
  biofilm OD 630 nm divided by control (biofilm growth): 0.6940
Streptococcus gordonii [5]; 10 μmol/ml
  biofilm OD 630 nm divided by control (biofilm growth): 0.6458
Streptococcus gordonii [5]; 20 μmol/ml
  biofilm OD 630 nm divided by control (biofilm growth): 0.6465
Streptococcus gordonii [5]; 25 μmol/ml
  biofilm OD 630 nm divided by control (biofilm growth): 0.6859
Streptococcus mitis; 5 μmol/ml
  biofilm OD 630 nm divided by control (biofilm growth): 1.4898
Streptococcus mitis; 10 μmol/ml
  biofilm OD 630 nm divided by control (biofilm growth): 1.2441
Streptococcus mitis; 20 μmol/ml
  biofilm OD 630 nm divided by control (biofilm growth): 1.3917
Streptococcus mitis; 25 μmol/ml
  biofilm OD 630 nm divided by control (biofilm growth): 1.2800
Streptococcus mutans [6]; 5 μmol/ml
  biofilm OD 630 nm divided by control (biofilm growth): 1.2046
Streptococcus mutans [6]; 10 μmol/ml
  biofilm OD 630 nm divided by control (biofilm growth): 1.3284
Streptococcus mutans [6]; 20 μmol/ml
  biofilm OD 630 nm divided by control (biofilm growth): 1.5452
Streptococcus mutans [6]; 25 μmol/ml
  biofilm OD 630 nm divided by control (biofilm growth): 1.7240
Tannerella forsythia [7]; 5 μmol/ml
  biofilm OD 630 nm divided by control (biofilm growth): 0.7627
Tannerella forsythia [7]; 10 μmol/ml
  biofilm OD 630 nm divided by control (biofilm growth): 1.0506
Tannerella forsythia [7]; 20 μmol/ml
  biofilm OD 630 nm divided by control (biofilm growth): 0.8302
Tannerella forsythia [7]; 25 μmol/ml
  biofilm OD 630 nm divided by control (biofilm growth): 1.0929
